In patent publication US11976072B2, “Diacylglycerol kinase modulating compounds” (priority 2021, dated 2024) one finds IC50 and EC50 data, which are given here for 19 compounds.

The target in one test is human DGKα (Homo sapiens, UniProt P23743). Briefly: DGKα Biochemical Activity Assay (ADP-Glo).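 Also: luminescent detection of ADP produced as DGKα phosphorylates DAG to phosphatidic acid, IC50 from four-parameter nonlinear curve fit.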 Particulars: recombinant DGKα 1 nM, 100 μM ATP, 18:1 DAG/POPS/octylglucoside micelles, 1 hour at 25° C.; geometric mean; read-out: HTBS DGKa 1X ATP KM IC50. In general terms: ADP-Glo first removes unused ATP, then detects ADP through luciferase.
Chain of human DGKα (P23743 whole entry): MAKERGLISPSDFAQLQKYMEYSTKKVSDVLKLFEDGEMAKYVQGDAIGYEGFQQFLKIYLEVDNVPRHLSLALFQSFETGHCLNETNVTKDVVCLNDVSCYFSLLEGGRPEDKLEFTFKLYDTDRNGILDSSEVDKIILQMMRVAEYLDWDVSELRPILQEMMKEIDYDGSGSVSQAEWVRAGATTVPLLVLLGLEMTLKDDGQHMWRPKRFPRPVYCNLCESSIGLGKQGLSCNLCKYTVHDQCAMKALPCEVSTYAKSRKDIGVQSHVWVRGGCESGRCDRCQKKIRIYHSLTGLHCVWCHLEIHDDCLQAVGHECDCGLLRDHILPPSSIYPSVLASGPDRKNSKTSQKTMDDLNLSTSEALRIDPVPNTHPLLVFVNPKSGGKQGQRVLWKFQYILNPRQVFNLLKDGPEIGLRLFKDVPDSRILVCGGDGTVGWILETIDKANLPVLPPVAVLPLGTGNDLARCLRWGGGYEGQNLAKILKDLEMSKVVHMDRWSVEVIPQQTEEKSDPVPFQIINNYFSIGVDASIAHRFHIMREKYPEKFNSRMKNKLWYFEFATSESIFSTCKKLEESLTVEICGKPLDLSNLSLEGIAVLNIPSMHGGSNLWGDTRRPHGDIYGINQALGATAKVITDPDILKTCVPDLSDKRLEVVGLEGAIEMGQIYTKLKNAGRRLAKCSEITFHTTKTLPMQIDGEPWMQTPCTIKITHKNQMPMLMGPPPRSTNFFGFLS
The subject of test [1] is Jurkat NFκB-luciferase cells. As to the kind of experiment: Jurkat NFκB-Luciferase Assay. It is filed as cell-based. The following applies: Homo sapiens; Jurkat NFκB-luciferase cells activated with anti-CD3 antibody (OKT3), 2.5 hrs at 37° C.; geometric mean; read-out: DGK NFKb Luciferase EC50. As to the method: The day after, the excess antibody was washed out five times with 100 ul/well of assay medium (RPMI supplemented with 10% fetal bovine serum) using a Biotek EL406 instrument and leaving 20 ul of residual volume in each well. Jurkat NFκB-luciferase cells (Promega #) were harvested and diluted to 1 million cells/ml in assay medium. […] Thirty microliters of medium containing the Jurkat NFκB-luciferase cells were then dispensed using a Biotek MicroFlo instrument in each well of the compound-containing plate. […] Forty microliters of One-Glo Ex (Promega) was then added to the assay mixture and luciferase activity was read on a Envision plate reader 7 minutes later.

What is called IC50 is the concentration at which inhibition is half-maximal. For orientation: EC50 means the concentration at which the effect is half-maximal. Turning to `Cc1nnc2nc(N3CCCCc4c(C#CC5CC5)cncc43)c3c(F)c(F)ccc3n12` [Example 1, 5-(6-(cyclopropylethynyl)-2,3,4,5-tetrahydro-1H-pyrido[3,4-b]azepin-1-yl)-6,7-difluoro-1-methyl-[1,2,4]triazolo[4,3-a]quinazoline], the IC50 on human DGKα amounted to 15.1 nM. Besides, the EC50 in test [1] stood at 0.897 nM.

Take `Cc1nnc2nc(N3CCCCc4c(C#CC(C)(C)C#N)cncc43)c3c(F)c(F)ccc3n12` [Example 2, 4-(1-(6,7-difluoro-1-methyl-[1,2,4]triazolo[4,3-a]quinazolin-5-yl)-2,3,4,5-tetrahydro-1H-pyrido[3,4-b]azepin-6-yl)-2,2-dimethylbut-3-ynenitrile]: the IC50 at human DGKα was 14.8 nM. Further, the EC50 in test [1] was found to be 3.13 nM.

As to `Cc1nnc2nc(N3CCCCc4c(C#CC5(C(F)(F)F)CC5)cncc43)c3cc(F)ccc3n12` [Example 3, 7-fluoro-1-methyl-5-(6-((1-(trifluoromethyl)cyclopropyl)ethynyl)-2,3,4,5-tetrahydro-1H-pyrido[3,4-b]azepin-1-yl)-[1,2,4]triazolo[4,3-a]quinazoline], on human DGKα, the IC50 stood at 35.9 nM. For the same compound, the EC50 in test [1] stood at 1.86 nM.

Regarding `Cc1nnc2nc(N3CCCCc4c(C#CC(C)(C)C#N)cncc43)c3cc(F)ccc3n12` [Example 4, 4-(1-(7-fluoro-1-methyl-[1,2,4]triazolo[4,3-a]quinazolin-5-yl)-2,3,4,5-tetrahydro-1H-pyrido[3,4-b]azepin-6-yl)-2,2-dimethylbut-3-ynenitrile], at human DGKα, the IC50 was determined as 23.9 nM. Moreover, the concentration giving a half-maximal response (EC50) in test [1] is 6.92 nM.

With `Cc1nnc2nc(N3CCCCc4c(C#CC5(C)CC5)cncc43)c3cc(F)ccc3n12` [Example 5, 7-fluoro-1-methyl-5-(6-((1-methylcyclopropyl)ethynyl)-2,3,4,5-tetrahydro-1H-pyrido[3,4-b]azepin-1-yl)-[1,2,4]triazolo[4,3-a]quinazoline], the IC50 at human DGKα came to 14.5 nM. The EC50 in test [1] worked out at 1.19 nM.

Regarding `Cc1nnc2nc(N3CCCCc4c(C#CC5(C)CC5)cncc43)c3c(F)cccc3n12` [Example 6, 6-fluoro-1-methyl-5-(6-((1-methylcyclopropyl)ethynyl)-2,3,4,5-tetrahydro-1H-pyrido[3,4-b]azepin-1-yl)-[1,2,4]triazolo[4,3-a]quinazoline], the IC50 at human DGKα is 44.1 nM. Also, the EC50 in test [1] was found to be 0.692 nM.

`Cc1nnc2nc(N3CCCCc4c(C#CC5(C)CC5)cncc43)c3c(F)c(F)ccc3n12` [Example 7, 6,7-difluoro-1-methyl-5-(6-((1-methylcyclopropyl)ethynyl)-2,3,4,5-tetrahydro-1H-pyrido[3,4-b]azepin-1-yl)-[1,2,4]triazolo[4,3-a]quinazoline]: the IC50 on human DGKα was determined as 23.1 nM. For the same compound, the EC50 in test [1] came out at 0.747 nM.

Regarding `Cc1nnc2nc(N3CCCCc4c(C#CC5(C(F)F)CC5)cncc43)c3c(F)c(F)ccc3n12` [Example 8, 5-(6-((1-(difluoromethyl)cyclopropyl)ethynyl)-2,3,4,5-tetrahydro-1H-pyrido[3,4-b]azepin-1-yl)-6,7-difluoro-1-methyl-[1,2,4]triazolo[4,3-a]quinazoline], the IC50 on human DGKα came to 17.7 nM. In addition, the EC50 in test [1] was found to be 1.65 nM.

`Cc1nnc2nc(N3CCCCc4c(C#CC5(C(F)(F)F)CC5)cncc43)c3c(F)c(F)ccc3n12` [Example 9, 6,7-difluoro-1-methyl-5-(6-((1-(trifluoromethyl)cyclopropyl)ethynyl)-2,3,4,5-tetrahydro-1H-pyrido[3,4-b]azepin-1-yl)-[1,2,4]triazolo[4,3-a]quinazoline]: the IC50 on human DGKα was found to be 28.5 nM. In test [1], the EC50 amounted to 1.53 nM.

Consider `Cc1nnc2nc(N3CCCc4c(C#CC(C)(C)C#N)cncc43)c3c(F)c(F)ccc3n12` [Example 10, 4-(1-(6,7-difluoro-1-methyl-[1,2,4]triazolo[4,3-a]quinazolin-5-yl)-1,2,3,4-tetrahydro-1,7-naphthyridin-5-yl)-2,2-dimethylbut-3-ynenitrile], for which the IC50 on human DGKα was 17.2 nM. The EC50 in test [1] was 5.87 nM.

In the case of `Cc1nnc2nc(N3CCCc4c(C#CC5(C(F)F)CC5)cncc43)c3c(F)c(F)ccc3n12` [Example 11, 5-(5-((1-(difluoromethyl)cyclopropyl)ethynyl)-3,4-dihydro-1,7-naphthyridin-1(2H)-yl)-6,7-difluoro-1-methyl-[1,2,4]triazolo[4,3-a]quinazoline], the IC50 on human DGKα amounted to 13.9 nM. In test [1], the EC50 was determined as 5.77 nM.

In the case of `Cc1nnc2nc(N3CCCc4c(C#CC5(C(C)(F)F)CC5)cncc43)c3c(F)c(F)ccc3n12` [Example 12, 5-(5-((1-(1,1-difluoroethyl)cyclopropyl)ethynyl)-3,4-dihydro-1,7-naphthyridin-1(2H)-yl)-6,7-difluoro-1-methyl-[1,2,4]triazolo[4,3-a]quinazoline], the IC50 at human DGKα was found to be 37.3 nM. In test [1], the EC50 is 1.85 nM.

As for `Fc1ccc2c(c(N3CCCc4c(C#CC5CCC5)cncc43)nc3nncn32)c1F` [Example 13, 5-(5-(cyclobutylethynyl)-3,4-dihydro-1,7-naphthyridin-1(2H)-yl)-6,7-difluoro-[1,2,4]triazolo[4,3-a]quinazoline], the IC50 at human DGKα amounted to 7.93 nM. For the same compound, in test [1], the EC50 was 1.01 nM.

As to `Fc1ccc2c(c(N3CCCc4c(C#CC5CC(F)(F)C5)cncc43)nc3nncn32)c1F` [Example 14, 5-(5-((3,3-difluorocyclobutyl)ethynyl)-3,4-dihydro-1,7-naphthyridin-1(2H)-yl)-6,7-difluoro-[1,2,4]triazolo[4,3-a]quinazoline], the IC50 at human DGKα is 8.19 nM. The EC50 in test [1] turned out to be 1.4 nM.

Consider `Fc1ccc2c(c(N3CCCc4c(C#CC5(C(F)F)CC5)cncc43)nc3nncn32)c1F` [Example 15, 5-(5-((1-(difluoromethyl)cyclopropyl)ethynyl)-3,4-dihydro-1,7-naphthyridin-1(2H)-yl)-6,7-difluoro-[1,2,4]triazolo[4,3-a]quinazoline], for which the IC50 at human DGKα came to 7.16 nM. Also, the EC50 in test [1] came out at 1.91 nM.

For the compound `CC(F)(F)C1(C#Cc2cncc3c2CCCN3c2nc3nncn3c3ccc(F)c(F)c23)CC1` [Example 16, 5-(5-((1-(1,1-difluoroethyl)cyclopropyl)ethynyl)-3,4-dihydro-1,7-naphthyridin-1(2H)-yl)-6,7-difluoro-[1,2,4]triazolo[4,3-a]quinazoline], the IC50 on human DGKα amounted to 22.7 nM. Further, the EC50 in test [1] amounted to 1.54 nM.

Take `Fc1cccc2c1c(N1CCCc3c(C#CC4CC(F)(F)C4)cncc31)nc1nncn12` [Example 17, 5-(5-((3,3-difluorocyclobutyl)ethynyl)-3,4-dihydro-1,7-naphthyridin-1(2H)-yl)-6-fluoro-[1,2,4]triazolo[4,3-a]quinazoline]: the IC50 at human DGKα stood at 14.7 nM. In test [1], the concentration giving a half-maximal response (EC50) was 1.16 nM.

As for `Fc1cccc2c1c(N1CCCc3c(C#CC4CCC4)cncc31)nc1nncn12` [Example 18, 5-(5-(cyclobutylethynyl)-3,4-dihydro-1,7-naphthyridin-1(2H)-yl)-6-fluoro-[1,2,4]triazolo[4,3-a]quinazoline], the IC50 on human DGKα worked out at 14.2 nM. The EC50 in test [1] was determined as 1.5 nM.

Take `Fc1cccc2c1c(N1CCCc3c(C#CC4(C(F)F)CC4)cncc31)nc1nncn12` [Example 19, 5-(5-((1-(difluoromethyl)cyclopropyl)ethynyl)-3,4-dihydro-1,7-naphthyridin-1(2H)-yl)-6-fluoro-[1,2,4]triazolo[4,3-a]quinazoline]: the IC50 on human DGKα amounted to 21.3 nM. In addition, the EC50 in test [1] is 1.53 nM.
